From ChEMBL document CHEMBL3585344, “Thiazole-based aminopyrimidines and N-phenylpyrazolines as potent antimicrobial agents: synthesis and biological evaluation” (2014)
In brackets after ≈: the same amount, converted by molar mass.

Key:
[1] = tested on: Escherichia coli; experiment: Antibacterial activity against Escherichia coli ATCC 35210 after 24 hrs by microdilution method; format: functional; conditions: ATCC 35210, 24 h
[2] = tested on: Trichoderma viride; experiment: Antifungal activity against Trichoderma viride IAM 5061 after 72 hrs by microdilution method; format: functional; conditions: IAM 5061, 72 h
[3] = tested on: Candida albicans; experiment: Antifungal activity against Candida albicans ATCC 10231 isolated from human after 72 hrs by microdilution method; format: functional; conditions: ATCC 10231, 72 h
[4] = tested on: Enterobacter cloacae; experiment: Bactericidal activity against Enterobacter cloacae ATCC 35030 isolated from human after 72 hrs by microdilution method; format: functional
[5] = tested on: Pseudomonas aeruginosa; experiment: Bactericidal activity against Pseudomonas aeruginosa ATCC 27853 after 72 hrs by microdilution method; format: functional
[6] = tested on: Escherichia coli; experiment: Bactericidal activity against Escherichia coli ATCC 35210 after 72 hrs by microdilution method; format: functional
[7] = tested on: Aspergillus niger; experiment: Antifungal activity against Aspergillus niger ATCC 6275 after 72 hrs by microdilution method; format: functional; conditions: ATCC 6275, 72 h
[8] = tested on: Aspergillus flavus; experiment: Fungicidal activity against Aspergillus flavus ATCC 9643 after 72 hrs by microdilution method; format: functional
[9] = tested on: Talaromyces funiculosus; experiment: Fungicidal activity against Penicillium funiculosum ATCC 36839 after 72 hrs by microdilution method; format: functional
[10] = tested on: Bacillus cereus; experiment: Antibacterial activity against Bacillus cereus clinical isolate after 24 hrs by microdilution method; format: functional
[11] = tested on: Candida albicans; experiment: Fungicidal activity against Candida albicans ATCC 10231 isolated from human after 72 hrs by microdilution method; format: functional
[12] = tested on: Bacillus cereus; experiment: Bactericidal activity against Bacillus cereus clinical isolate after 72 hrs by microdilution method; format: functional
[13] = tested on: Enterobacter cloacae; experiment: Antibacterial activity against Enterobacter cloacae ATCC 35030 isolated from human after 24 hrs by microdilution method; format: functional; conditions: ATCC 35030, 24 h
[14] = tested on: Listeria monocytogenes; experiment: Bactericidal activity against Listeria monocytogenes NCTC 7973 after 72 hrs by microdilution method; format: functional
[15] = tested on: Salmonella typhimurium; experiment: Antibacterial activity against Salmonella typhimurium ATCC 13311 after 24 hrs by microdilution method; format: functional, Salmonella enterica subsp. enterica serovar Typhimurium; conditions: Salmonella enterica, ATCC 13311, 24 h
[16] = tested on: Aspergillus flavus; experiment: Antifungal activity against Aspergillus flavus ATCC 9643 after 72 hrs by microdilution method; format: functional; conditions: ATCC 9643, 72 h
[17] = tested on: Talaromyces funiculosus; experiment: Antifungal activity against Penicillium funiculosum ATCC 36839 after 72 hrs by microdilution method; format: functional; conditions: ATCC 36839, 72 h
[18] = tested on: Listeria monocytogenes; experiment: Antibacterial activity against Listeria monocytogenes NCTC 7973 after 24 hrs by microdilution method; format: functional; conditions: NCTC 7973, 24 h
[19] = tested on: Penicillium ochrochloron; experiment: Antifungal activity against Penicillium ochrochloron ATCC 9112 after 72 hrs by microdilution method; format: functional; conditions: ATCC 9112, 72 h
[20] = tested on: Aspergillus ochraceus; experiment: Fungicidal activity against Aspergillus ochraceus ATCC 12066 after 72 hrs by microdilution method; format: functional
[21] = tested on: Penicillium ochrochloron; experiment: Fungicidal activity against Penicillium ochrochloron ATCC 9112 after 72 hrs by microdilution method; format: functional
[22] = tested on: Staphylococcus aureus; experiment: Antibacterial activity against Staphylococcus aureus ATCC 6538 after 24 hrs by microdilution method; format: functional; conditions: ATCC 6538, 24 h
[23] = tested on: Aspergillus ochraceus; experiment: Antifungal activity against Aspergillus ochraceus ATCC 12066 after 72 hrs by microdilution method; format: functional; conditions: ATCC 12066, 72 h
[24] = tested on: Salmonella typhimurium; experiment: Bactericidal activity against Salmonella typhimurium ATCC 13311 after 72 hrs by microdilution method; format: functional, Salmonella enterica subsp. enterica serovar Typhimurium
[25] = tested on: Aspergillus fumigatus; experiment: Fungicidal activity against Aspergillus fumigatus isolated from human after 72 hrs by microdilution method; format: functional
[26] = tested on: Micrococcus flavus; experiment: Bactericidal activity against Micrococcus flavus ATCC 10240 after 72 hrs by microdilution method; format: functional
[27] = tested on: Trichoderma viride; experiment: Fungicidal activity against Trichoderma viride IAM 5061 after 72 hrs by microdilution method; format: functional
[28] = tested on: Pseudomonas aeruginosa; experiment: Antibacterial activity against Pseudomonas aeruginosa ATCC 27853 after 24 hrs by microdilution method; format: functional; conditions: ATCC 27853, 24 h
[29] = tested on: Micrococcus flavus; experiment: Antibacterial activity against Micrococcus flavus ATCC 10240 after 24 hrs by microdilution method; format: functional; conditions: ATCC 10240, 24 h
[30] = tested on: Aspergillus fumigatus; experiment: Antifungal activity against Aspergillus fumigatus isolated from human after 72 hrs by microdilution method; format: functional
[31] = tested on: Aspergillus niger; experiment: Fungicidal activity against Aspergillus niger ATCC 6275 after 72 hrs by microdilution method; format: functional
[32] = tested on: Staphylococcus aureus; experiment: Bactericidal activity against Staphylococcus aureus ATCC 6538 after 72 hrs by microdilution method; format: functional
[33] = tested on: Aspergillus versicolor; experiment: Fungicidal activity against Aspergillus versicolor ATCC 11730 after 72 hrs by microdilution method; format: functional
[34] = tested on: Aspergillus versicolor; experiment: Antifungal activity against Aspergillus versicolor ATCC 11730 after 72 hrs by microdilution method; format: functional; conditions: ATCC 11730, 72 h

Row | SMILES | MIC [1] [µM] | MIC [2] [µM] | MIC [3] [µM] | MBC99.5 [4] [×10⁻² umol/ml] | MBC99.5 [5] [×10⁻² umol/ml] | MBC99.5 [6] [×10⁻² umol/ml] | MIC [7] [µM] | MFC99.5 [9] [×10⁻² umol/ml] | MIC [10] [µM] | MFC99.5 [11] [×10⁻² umol/ml] | MBC99.5 [12] [×10⁻² umol/ml] | MIC [13] [µM] | MBC99.5 [14] [×10⁻² umol/ml] | MIC [15] [µM] | MIC [17] [µM] | MIC [18] [µM] | MIC [19] [µM] | MFC99.5 [20] [×10⁻² umol/ml] | MFC99.5 [21] [×10⁻² umol/ml] | MIC [22] [µM] | also measured
1 | CNc1nc(C)c(-c2cc(-c3ccccc3)nc(N)n2)s1 | 33.7 (≈ 10 µg/mL) | 25.2 (≈ 7.49 µg/mL) | 33.7 (≈ 10 µg/mL) | 8.41 | 6.74 | 6.74 | 50.5 (≈ 15 µg/mL) | 6.74 | 33.7 (≈ 10 µg/mL) | 6.74 | 6.74 | 67.4 (≈ 20 µg/mL) | 11.81 | 33.7 (≈ 10 µg/mL) | 33.7 (≈ 10 µg/mL) | 101 (≈ 30 µg/mL) | 33.7 (≈ 10 µg/mL) | 6.74 | 5.05 | 84.1 (≈ 25 µg/mL) | MFC99.5 [8]: 6.74 ×10⁻² umol/ml; MIC [16]: 50.5 µM (≈ 15 µg/mL); MIC [23]: 33.7 µM (≈ 10 µg/mL); MBC99.5 [24]: 6.74 ×10⁻² umol/ml; MFC99.5 [25]: 6.74 ×10⁻² umol/ml; MBC99.5 [26]: 8.41 ×10⁻² umol/ml; MFC99.5 [27]: 3.37 ×10⁻² umol/ml; MIC [28]: 33.7 µM (≈ 10 µg/mL); MIC [29]: 33.7 µM (≈ 10 µg/mL); MIC [30]: 50.5 µM (≈ 15 µg/mL); MFC99.5 [31]: 6.74 ×10⁻² umol/ml; MBC99.5 [32]: 10.1 ×10⁻² umol/ml
2 | CNc1nc(C)c(C2=NN(c3ccccc3)C(c3ccccc3)C2)s1 (centres undefined) | 172 (≈ 59.9 µg/mL) | 287 (≈ 100 µg/mL) | 172 (≈ 59.9 µg/mL) | 20.1 | 45.9 | 20.1 | 143 (≈ 49.8 µg/mL) | 40.2 | 230 (≈ 80.1 µg/mL) | 23 | 28.7 | 144 (≈ 50.2 µg/mL) | 11.5 | 172 (≈ 59.9 µg/mL) | 287 (≈ 100 µg/mL) | 57 (≈ 19.9 µg/mL) | 143 (≈ 49.8 µg/mL) | 17.2 | 28.7 | 115 (≈ 40.1 µg/mL) | MFC99.5 [33]: 23 ×10⁻² umol/ml; MIC [34]: 143 µM (≈ 49.8 µg/mL); MIC [23]: 143 µM (≈ 49.8 µg/mL); MBC99.5 [24]: 28.7 ×10⁻² umol/ml; MFC99.5 [25]: 23 ×10⁻² umol/ml; MBC99.5 [26]: 23 ×10⁻² umol/ml; MFC99.5 [27]: 40.2 ×10⁻² umol/ml; MIC [28]: 144 µM (≈ 50.2 µg/mL); MIC [29]: 115 µM (≈ 40.1 µg/mL); MIC [30]: 143 µM (≈ 49.8 µg/mL); MFC99.5 [31]: 28.7 ×10⁻² umol/ml; MBC99.5 [32]: 20.1 ×10⁻² umol/ml
